Assay results reported in paper PMC5104426, “Screening a Phage Display Library for Two Novel OmpU-Binding Peptides with Adhesion Antagonistic Activity against Vibrio mimicus” (PLoS ONE, 2016).

System: rOmpU fusion protein
Assay: Solid phase non-competitive ELISA (Beatty method), affinity constant
Format: binding, Vibrio mimicus
Conditions: for affinity constant: peptide coated 2.5-40 μg/mL, rOmpU 0.2-12.8 μg/mL, modified Beatty formula, triplicate, mean ± SD, SD; for AAP concentration at 50% OD492nm: from fitted curve equation
Method: To determine the binding affinity of interactions between adhesion antagonistic peptide and rOmpU fusion protein, solid phase non-competitive ELISA method (also known as the Beatty method) was used to measure the affinity constant of adhesion antagonistic peptide. Briefly, adhesion antagonistic peptides were diluted to 40 μg/mL, 20 μg/mL, 10 μg/mL, 5 μg/mL and 2.5 μg/mL, respectively, and laterally coated onto plate wells (100 μL/well) at 4°C overnight. Next day, each well was blocked with 5% BSA at 37°C for 2 h, and then washed 6 times with TBST. Subsequently, rOmpU fusion protein were diluted to 12.8 μg/mL, 3.2 μg/mL, 0.8 μg/mL and 0.2 μg/mL, respectively, and longitudinally added to coated wells (100 μL/well), and the plates were incubated for 2 h at 37°C. After thorough washing, rabbit anti-rOmpU protein antibody, HRP labeled goat anti-rabbit IgG and substrate solution was added in turn, each step was preceded by 6 washes in TBST. OD492 nm values were finally determined. With OD492nm values as the ordinate and adhesion antagonistic peptide concentration as the abscissa, the binding reaction curves between adhesion antagonistic peptide and rOmpU fusion protein at different concentrations were plotted. MATLAB version 7.0 was used to fitting the binding response curve, and to derive the curve equation. From the equation, the corresponding adhesion antagonistic peptide concentration at 50% OD492nm value in the curve was obtained. The affinity constant K was calculated using a modified version of the Beatty formula [affinity constant (K) = (n—1) / 2 (nAb'total- Abtotal)] [11]. Ab'total and Abtotal in the formula represent respectively the corresponding adhesion antagonistic peptide concentration at 50% OD492nm value in the binding response curve when the concentration of rOmpU protein was P' and P; n represents P/P'. This assay was performed in triplicate.

Sequence	affinity constant	AAP concentration at 50% OD492nm (rOmpU concentration 0.2 μg/mL) [µg/mL]	AAP concentration at 50% OD492nm (rOmpU concentration 0.8 μg/mL) [µg/mL]	AAP concentration at 50% OD492nm (rOmpU concentration 3.2 μg/mL) [µg/mL]	AAP concentration at 50% OD492nm (rOmpU concentration 12.8 μg/mL) [µg/mL]
TWTCSDVICTAR [P1, adhesion antagonistic peptide]	(6.17 ± 0.19) × 10^8 L/mol	1.12	1.05	0.98	0.86
SCTSPHCFMWLP [P2, adhesion antagonistic peptide]	(1.24 ± 0.56) × 10^9 L/mol	0.70	0.57	0.56	0.55
